# In patent US10959925B2, “Hair cosmetic composition” (KAO CORPORATION, priority 2016, dated 2021):
# Assay: physchem
smiles,measurement,value
CC1COC(=O)O1 (stereo not shown) [propylene carbonate],logP,-0.41
